According to patent publication US20100035756A1, “TRIAZOLOPHYRIDINE DERIVATIVES AS HERBICIDES” (SYNGENTA LIMITED, priority 2006, published 2010):

Columns and labels:
[1] = test system: Monocotyledonous and dicotyledonous test plants; assay: Herbicidal action prior to emergence of the plants (pre-emergence action), Example B1; type: in vivo; conditions: preemergence application, 250 g/ha, evaluated after 4 weeks, 100%=total damage, 0%=no damage
Method: (§1) Monocotyledonous and dicotyledonous test plants are sown in seed trays in standard soil. Immediately after sowing, the test compounds are applied by spraying in the form of an aqueous suspension (prepared from a wettable powder (Example F3, b) according to WO 97/34485) or in the form of an emulsion (prepared from an emulsifiable concentrate (Example F1, c) according to WO 97/34485) in a concentration of 250 g/ha. The test plants are then grown in a greenhouse under optimum conditions. After a 4-week test period, the test is evaluated (100%=total damage to plant; 0%=no damage to plant; NC not evaluated).

[2] = test system: Monocotyledonous and dicotyledonous test plants; assay: Herbicidal action after emergence of the plants (post-emergence herbicidal action), Example B2; type: in vivo; conditions: postemergent application, 125 g/ha, 2- to 3-leaf stage, evaluated after 2-3 weeks, 100%=total damage
Method: as §1, with “When the test plants are at the 2- to 3-leaf stage,” for “Immediately after sowing,”, “125” for “250”, “grown on” for “grown”, “2- to 3-week” for “4-week”, “plant).” for “plant; NC not evaluated).”

Row | SMILES | herbicidal damage, ABUTH [1] | herbicidal damage, AMARE [1] | herbicidal damage, BRAPL [1] | herbicidal damage, DIGSA [1] | herbicidal damage, ECHCG [1] | herbicidal damage, SETFA [1] | herbicidal damage, STEME [1] | herbicidal damage, VERPE [1] | herbicidal damage, ABUTH [2] | herbicidal damage, AMARE [2] | herbicidal damage, CHEAL [2] | herbicidal damage, DIGSA [2] | herbicidal damage, SETFA [2] | herbicidal damage, SINAR [2] | herbicidal damage, VERPE [2] | herbicidal damage, XANST [2]
1 | O=C(C1=C(O)C2CCC(C2)C1=O)c1ccc(C(F)(F)F)n2ncnc12 (stereo not shown) [2.1] | 100% | 100% | 100% | 100% | 90% | 90% | 70% | 40% | – | – | – | – | – | – | – | –
2 | O=C(C1=C(O)C2CCC(C2)C1=O)c1ccc(C(F)(F)F)n2nc(Cl)nc12 (stereo not shown) [2.2] | 50% | 70% | 50% | 50% | 70% | 10% | 0% | 60% | 40% | 80% | 80% | 90% | 80% | 70% | 70% | 60%
3 | Cc1nc2c(C(=O)C3=C(O)C4CCC(C4)C3=O)ccc(C(F)(F)F)n2n1 (stereo not shown) [2.4] | 70% | 60% | 10% | 30% | – | 20% | 60% | 10% | 80% | 80% | 80% | 70% | 70% | 80% | 30% | 80%
4 | CC(C)c1nc2c(C(=O)C3=C(O)C4CCC(C4)C3=O)ccc(C(F)(F)F)n2n1 (stereo not shown) [2.7] | 30% | 20% | 0% | 0% | 10% | 0% | 20% | 50% | 70% | – | 70% | 20% | 20% | 60% | 10% | 70%
5 | O=C(C1=C(O)C2CCC(C2)C1=O)c1ccc(C(F)(F)F)n2nc(-c3ccc(Cl)cc3)nc12 (stereo not shown) [2.35] | 0% | 0% | 50% | 20% | 0% | 0% | 50% | 0% | – | – | – | – | – | – | – | –
6 | CCOc1nc2c(C(=O)C3=C(O)C4CCC(C4)C3=O)ccc(C(F)(F)F)n2n1 (stereo not shown) [2.209] | 100% | 100% | 90% | 80% | 70% | 80% | 70% | 30% | 80% | 90% | 80% | 80% | 80% | 80% | 80% | 80%
7 | Cc1nc2c(C(=O)C3=C(O)C(C)(C)C(=O)C(C)(C)C3=O)ccc(C(F)(F)F)n2n1 [13.3] | 100% | 90% | 80% | 80% | 30% | 70% | 100% | 100% | 80% | 70% | 50% | 60% | 70% | 80% | 70% | 80%
8 | O=C(C1=C(O)C2CCC(C2)C1=O)c1ccc(C(F)(F)F)n2cnnc12 (stereo not shown) [Compound 1.1] | 100% | – | 30% | 70% | 0% | 30% | 100% | 60% | 80% | 80% | 80% | 60% | 80% | 90% | 50% | 80%
9 | O=C(C1=C(O)C2CCC(C2)C1=O)c1ccc(C(F)(F)F)n2c(-c3ccc(Cl)cc3)nnc12 (stereo not shown) [Compound 1.35] | 50% | 100% | 100% | 100% | 0% | 30% | 70% | 40% | – | – | – | – | – | – | – | –
10 | O=C1CCCC(O)=C1C(=O)c1ccc(C(F)(F)F)n2cnnc12 [Compound 3.1] | 100% | 100% | 40% | 100% | 10% | 0% | 70% | 60% | – | – | – | – | – | – | – | –
11 | O=C1CCCC(O)=C1C(=O)c1ccc(C(F)(F)F)n2c(Cl)nnc12 [Compound 3.2] | 100% | 100% | 0% | 80% | 70% | 0% | 100% | 100% | – | – | – | – | – | – | – | –
12 | O=C1CCCC(O)=C1C(=O)c1ccc(C(F)(F)F)n2c(OC(F)F)nnc12 [Compound 3.12] | 50% | 100% | 60% | 10% | 0% | 0% | 0% | – | – | – | – | – | – | – | – | –
13 | O=C1CCCC(O)=C1C(=O)c1ccc(C(F)(F)F)n2c(-c3cccnc3)nnc12 [Compound 3.15] | 10% | 0% | 30% | 30% | 30% | 30% | 60% | 30% | – | – | – | – | – | – | – | –
14 | CC1(C)C(=O)C(C(=O)c2ccc(C(F)(F)F)n3cnnc23)=C(O)C(C)(C)C1=O [Compound 5.1] | 100% | 100% | 100% | 100% | 90% | 40% | 100% | 80% | – | – | – | – | – | – | – | –
15 | CC1(C)C(=O)C(C(=O)c2ccc(C(F)(F)F)n3c(Br)nnc23)=C(O)C(C)(C)C1=O [Compound 5.2] | – | – | – | – | – | – | – | – | 90% | 80% | 100% | 70% | 80% | 90% | 90% | 70%
16 | Cc1nc2c(C(=O)C3=C(O)CCCC3=O)ccc(C(F)(F)F)n2n1 [Compound 11.3] | 70% | 40% | 50% | 30% | 0% | 10% | 40% | 40% | – | – | – | – | – | – | – | –
